The values below are quoted from earlier work in patent publication US20110280834A1, “METHODS AND COMPOSITIONS FOR CARDIAC TISSUE REGENERATION” (priority 2009, published 2011).

For the data set the following is noted: rat, in vivo, ip, 70 umol/kg.

For the compound `O=c1[nH]c(=O)n([C@H]2C[C@H](O)[C@@H](CO)O2)cc1Br` [BrdU], the half-life (as a rule, the time in which the quantity being followed falls by half) was 2 h.
